According to patent US7994122B2, “Glucagon analogues” (Zealand Pharma A/S, priority 2007, dated 2011):
Where no end group is shown, it is not given here.

What was measured:
hGLP-1-R = biological target: T1, hGLP-1-R (Homo sapiens, UniProt P43220); assay: GLP-1 receptor efficacy assay (cAMP) in HEK293 cells expressing hGLP-1-R; format: cell-based
T1 construct: expressed in transfected cells
Excerpt: The DNA encoding the Glucagon-R or the GLP-1-R was amplified by PCR using primers encoding terminal restriction sites for subcloning. The 5′-end primers additionally encoded a near Kozak consensus sequence to ensure efficient translation. The PCR products encoding the Glucagon-R or the GLP-1-R were subcloned into a mammalian expression vector. The fidelity of the DNA encoding the Glucagon-R and the GLP-1-R was confirmed by DNA sequencing. As the mammalian expression vector additionally encodes for G418 resistance, transfected cells may be selected by applying selection pressure with G418. […] 48 hr after transfection cells were seeded for limited dilution cloning and selected with 1 mg/ml G418 in the culture medium. […] One Glucagon-R expressing clone and one GLP-1-R expressing clone were chosen for compound profiling.
HEK293 cells expressing the hGlucagon-R, or hGLP-1-R are seeded at 40,000 cells per well in 96-well microtiter plates coated with 0.01% poly-L-lysine and grown for 1 day in culture in […] growth medium. On the day of analysis, growth medium is removed and the cells washed once with 200 μl Tyrode buffer. Cells are incubated in 100 μl Tyrode buffer containing increasing concentrations of test peptides, 100 μM IBMX, and 6 mM glucose for up 15 min at 37° C. The reaction is stopped by addition of 25 μl 0.5 M HCl and incubated on ice for 60 min. The cAMP content is estimated using the FlashPlate® cAMP kit from Perkin-Elmer. EC50 and relative efficacy are estimated by computer aided curve fitting.

[1] = Body weight in diet induced obese (DIO) mice; format: in vivo, C57BI/6J male mice; settings: HFD (DIO) mice
Procedure: Efficacious glucagon/GLP-1 receptor agonists are tested on 9-15 weeks old, 40 C57BI/6J male mice which have been kept on a High Fat Diet (HFD)—60% high-fat food (Cat. No. D12492: 20% protein, 20% carbohydrate, and 60% fat, 5.2 kcal/g; Research Diets, New Jersey, USA, for 4 weeks. The high-fat food contains soybean oil (25/773.85 g) and lard (245/773.85 g).
DIO-mice are treated with vehicle or co-agonists for 2-4 weeks by bolus administration (s.c.) twice daily. Body weight is monitored daily throughout the experiment. At the end of the experimental period animals are sacrificed, blood collected for analysis of glycated hemoglobin and a range of hormones and peptides involved in regulation of appetite, food intake, body weight, and energy balances. In addition, the epididymal/perigonadal fat pads and retroperitoneal fat (WAT) as well as the intrascapular Brown Adipose Tissue (BAT) are dissected out and weighed. […]
Following an acclimatization treatment with 100 μl vehicle (PBS) once a day for two weeks DIO-mice were treated with vehicle, control peptides or Compound 3 for 4 weeks by bolus administration (s.c.) twice daily. Body weight was monitored daily throughout the experiment. […]

[2] = administered separately; Dakin et al. 2001; cited from earlier work

T1 sequence (P43220 24-463): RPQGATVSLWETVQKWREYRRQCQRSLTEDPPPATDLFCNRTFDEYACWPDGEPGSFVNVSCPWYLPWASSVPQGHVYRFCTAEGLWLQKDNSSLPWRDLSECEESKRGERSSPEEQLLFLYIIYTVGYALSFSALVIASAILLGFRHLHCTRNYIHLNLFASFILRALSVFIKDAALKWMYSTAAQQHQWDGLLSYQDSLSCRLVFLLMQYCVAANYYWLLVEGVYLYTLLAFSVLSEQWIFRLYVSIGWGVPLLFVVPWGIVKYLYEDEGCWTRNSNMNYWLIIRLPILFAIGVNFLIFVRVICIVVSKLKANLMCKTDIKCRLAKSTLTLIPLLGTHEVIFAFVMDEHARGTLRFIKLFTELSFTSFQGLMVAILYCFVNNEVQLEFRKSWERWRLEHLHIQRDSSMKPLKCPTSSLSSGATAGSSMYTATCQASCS

Substance | ratio (GluR / GLP1R EC values) (hGLP-1-R; first test) | EC50[Glu]/EC50[GLP-1] ratio (hGLP-1-R; re-testing) | EC50 (hGLP-1-R; re-testing, cAMP, HEK293 hGLP-1-R) [nM] | body weight gain ([1]; s.c. bolus 500 nmol/kg twice daily, 28 days, p<0.05 vs vehicle HFD) | weight reducing effect over time ([1]; s.c. twice daily, 4 weeks (FIG. 2)) | effect on food intake [2]
H-HSQGTFTSDYSKYLDRARADDFVAWLKST-NH2 [Compound 3] | 1.27 | 2.13 | 0.23 | able to reduce body weight gain comparable to oxyntomodulin treatment | sustained over time comparable to oxyntomodulin treatment and significantly different from exendin-4 treatment | 
KRNRNNIA [IP-1, C-terminal octapeptide of oxyntomodulin] |  |  |  |  |  | fail to affect food intake
